From patent publication US20250188092A1, “RIFAMYCIN ANALOGS” (THE REGENTS OF THE UNIVERSITY OF MICHIGAN, priority 2021, published 2025)
Converted amounts (≈) assume the structure as drawn. Like-named read-outs stand apart in the source and are kept apart here.

How the values were obtained:
MTB H37Rv ATCC 27294 = assay: MIC, microplate Alamar Blue assay (MABA); type: cell-based, Mycobacterium tuberculosis; conditions: for MIC90: MTB H37Rv ATCC 27294, microplate Alamar Blue assay, lowest concentration giving ≥90% reduction in fluorescence
VERO cells (ATCC CRL-81) = assay: Vero cell toxicity; type: cell-based; conditions: 72 hours exposure
Protocol: Cytotoxicity for a mammalian cell line was determined by exposing VERO cells (ATCC CRL-81) to serial dilutions of test compounds for 72 hours, followed by addition of resazurin and measurement of fluorescence after 4 hours incubation (Choules, et al., Antimnicrob. Agents Chemother. 2019, 63, e02204-02218).

SMILES	DPX2 Viability @ 6.25 μM (DPX2 cells; 24 h) [%]	DPX2 Viability @ 25 μM (DPX2 cells; human) [%]	MIC90 MABA Rel to RMP (MTB H37Rv ATCC 27294)	MIC90 (MTB H37Rv ATCC 27294; Mycobacterium tuberculosis) [nM]	MIC90 (MTB H37Rv ATCC 27294) [nM]	IC50 (VERO cells (ATCC CRL-81)) [µM]	DPX2 Viability @ 6.25 μM (DPX2 cells; human, 24 h) [%]	DPX2 Viability @ 25 μM (DPX2 cells; human, 24 h, 25 μM) [%]
CO[C@H]1/C=C/O[C@@]2(C)Oc3c(C)c(O)c4c(=O)c(c5oc6cc(N7CCN(CC(C)C)CC7)cc(N7CCN(CC(C)C)CC7)c6nc-5c4c3C2=O)NC(=O)/C(C)=C\C=C\[C@H](C)[C@H](O)[C@@H](C)[C@@H](O)[C@@H](C)[C@H](OC(C)=O)[C@@H]1C [Compound 17u, 7S,9E,11S,12R,13S,14R,15R,16R,17S,18S,19E,21Z)-2,15,17-trihydroxy-11-methoxy-3,7,12,14,16,18,22-heptamethyl-30,32-bis[4-(2-methylpropyl)piperazin-1-yl]-6,23,37-trioxo-8,27,38-trioxa-24,34-diazahexacyclo[23.11.1.1^4,7.0^5,36.0^26,35.0^28,33]octatriaconta-1,3,5(36)9,19,21,25,28,30,32,34-undecaen-13-yl acetate]	106	90	–	–	–	–	–	–
CO[C@H]1/C=C/O[C@@]2(C)Oc3c(C)c(O)c4c(=O)c(c5oc6cc(N7CCN(CCn8ccnc8)CC7)cc(C)c6nc-5c4c3C2=O)NC(=O)/C(C)=C\C=C\[C@H](C)[C@H](O)[C@@H](C)[C@@H](O)[C@@H](C)[C@H](OC(C)=O)[C@@H]1C [Compound 26c, (7S,9E,11S,12R,13S,14R,15R,16R,17S,18S,19E,21Z)-2,15,17-trihydroxy-30-{4-[2-(1H-imidazol-1-yl)ethyl]piperazin-1-yl}-11-methoxy-3,7,12,14,16,18,22,32-octamethyl-6,23,37-trioxo-8,27,38-trioxa-24,34-diazahexacyclo[23.11.1.1^4,7.0^5,36.0^26,35.0^28,33]octatriaconta-1(36)2,4,9,19,21,25,28,30,32,34-undecaen-13-yl acetate]	108	96	–	–	–	–	–	–
CO[C@H]1/C=C/O[C@@]2(C)Oc3c(C)c(O)c4c(=O)c(c5oc6cc(N7CCN(C(C)=O)CC7)cc(C)c6nc-5c4c3C2=O)NC(=O)/C(C)=C\C=C\[C@H](C)[C@H](O)[C@@H](C)[C@@H](O)[C@@H](C)[C@H](OC(C)=O)[C@@H]1C [Compound 26d, (7S,9E,11S,12R,13S,14R,15R,16R,17S,18S,19E,21Z)-30-(4-Acetylpiperazin-1-yl)-2,15,17-trihydroxy-11-methoxy-3,7,12,14,16,18,22,32-octamethyl-6,23,37-trioxo-8,27,38-trioxa-24,34-diazahexacyclo[23.11.1.1^4,7.0^5,36.0^26,35.0^28,33]octatriaconta-1(36)2,4,9,19,21,25,28,30,32,34-undecaen-13-yl acetate]	106	88	0.35	9.4	–	–	–	–
CCC(=O)N1CCN(c2cc(C)c3nc4c5c6c7c(C)c(O)c5c(=O)c(c-4oc3c2)NC(=O)/C(C)=C\C=C\[C@H](C)[C@H](O)[C@@H](C)[C@@H](O)[C@@H](C)[C@H](OC(C)=O)[C@H](C)[C@@H](OC)/C=C/O[C@@](C)(O7)C6=O)CC1 [Compound 26e, (7S,9E,11S,12R,13S,14R,15R,16R,17S,18S,19E,21Z)-2,15,17-Trihydroxy-11-methoxy-3,7,12,14,16,18,22,32-octamethyl-6,23,37-trioxo-30-(4-propanoylpiperazin-1-yl)-8,27,38-trioxa-24,34-diazahexacyclo[23.11.1.1^4,7.0^5,36.0^26,35.0^28,33]octatriaconta-1(36)2,4,9,19,21,25,28,30,32,34-undecaen-13-yl acetate]	101	97	0.35	9.4	–	–	–	–
CO[C@H]1/C=C/O[C@@]2(C)Oc3c(C)c(O)c4c(=O)c(c5oc6cc(N7CCN(C(=O)C(C)(C)C)CC7)cc(C)c6nc-5c4c3C2=O)NC(=O)/C(C)=C\C=C\[C@H](C)[C@H](O)[C@@H](C)[C@@H](O)[C@@H](C)[C@H](OC(C)=O)[C@@H]1C [Compound 26f, (7S,9E,11S,12R,13S,14R,15R,16R,17S,18S,19E,21Z)-30-[4-(2,2-Dimethylpropanoyl)piperazin-1-yl]-2,15,17-trihydroxy-11-methoxy-3,7,12,14,16,18,22,32-octamethyl-6,23,37-trioxo-8,27,38-trioxa-24,34-diazahexacyclo[23.11.1.1^4,7.0^5,36.0^26,35.0^28,33]octatriaconta-1(36)2,4,9,19,21,25,28,30,32,34-undecaen-13-yl acetate]	111	102	0.17	4.6	–	–	–	–
COC(=O)N1CCN(c2cc(C)c3nc4c5c6c7c(C)c(O)c5c(=O)c(c-4oc3c2)NC(=O)/C(C)=C\C=C\[C@H](C)[C@H](O)[C@@H](C)[C@@H](O)[C@@H](C)[C@H](OC(C)=O)[C@H](C)[C@@H](OC)/C=C/O[C@@](C)(O7)C6=O)CC1 [Compound 26g, Methyl 4-[(7S,9E,11S,12R,13S,14R,15R,16R,17S,18S,19E,21Z)-13-(acetyloxy)-2,15,17-trihydroxy-11-methoxy-3,7,12,14,16,18,22,32-octamethyl-6,23,37-trioxo-8,27,38-trioxa-24,34-diazahexacyclo[23.11.1.1^4,7.0^5,36.0^26,35.0^28,33]octatriaconta-1(36)2,4,9,19,21,25,28,30,32,34-undecaen-30-yl]piperazine-1-carboxylate]	111	105	0.18	5 (≈ 4.71 ng/mL)	–	–	–	–
CCOC(=O)N1CCN(c2cc(C)c3nc4c5c6c7c(C)c(O)c5c(=O)c(c-4oc3c2)NC(=O)/C(C)=C\C=C\[C@H](C)[C@H](O)[C@@H](C)[C@@H](O)[C@@H](C)[C@H](OC(C)=O)[C@H](C)[C@@H](OC)/C=C/O[C@@](C)(O7)C6=O)CC1 [Compound 26h, Ethyl 4-[(7S,9E,11S,12R,13S,14R,15R,16R,17S,18S,19E,21Z)-13-(acetyloxy)-2,15,17-trihydroxy-11-methoxy-3,7,12,14,16,18,22,32-octamethyl-6,23,37-trioxo-8,27,38-trioxa-24,34-diazahexacyclo[23.11.1.1^4,7.0^5,36.0^26,35.0^28,33]octatriaconta-1(36)2,4,9,19,21,25,28,30,32,34-undecaen-30-yl]piperazine-1-carboxylate]	118	110	0.18	4.9 (≈ 4.68 ng/mL)	–	–	–	–
CO[C@H]1/C=C/O[C@@]2(C)Oc3c(C)c(O)c4c(=O)c(c5oc6cc(N7CCN(C(=O)OC(C)(C)C)CC7)cc(C)c6nc-5c4c3C2=O)NC(=O)/C(C)=C\C=C\[C@H](C)[C@H](O)[C@@H](C)[C@@H](O)[C@@H](C)[C@H](OC(C)=O)[C@@H]1C [Compound 26i, tert-Butyl 4-[(7S,9E,11S,12R,13S,14R,15R,16R,17S,18S,19E,21Z)-13-(acetyloxy)-2,15,17-trihydroxy-11-methoxy-3,7,12,14,16,18,22,32-octamethyl-6,23,37-trioxo-8,27,38-trioxa-24,34-diazahexacyclo[23.11.1.1^4,7.0^5,36.0^26,35.0^28,33]octatriaconta-1(36)2,4,9,19,21,25,28,30,32,34-undecaen-30-yl]piperazine-1-carboxylate]	120	102	0.17	4.7 (≈ 4.62 ng/mL)	–	–	–	–
CO[C@H]1/C=C/O[C@@]2(C)Oc3c(C)c(O)c4c(=O)c(c5oc6cc(N7CCN(CCCCCCO[C@@H]8COc9nc([N+](=O)[O-])cn9C8)CC7)cc(C)c6nc-5c4c3C2=O)NC(=O)/C(C)=C\C=C\[C@H](C)[C@H](O)[C@@H](C)[C@@H](O)[C@@H](C)[C@H](OC(C)=O)[C@@H]1C [Compound 29e, (7S,9E,11S,12R,13S,14R,15R,16R,17S,18S,19E,21Z)-2,15,17-Trihydroxy-11-methoxy-3,7,12,14,16,18,22,32-octamethyl-30-[4-(6-{[(6S)-2-nitro-5H,6H,7H-imidazo[2,1-b][1,3]oxazin-6-yl]oxy}hexyl)piperazin-1-yl]-6,23,37-trioxo-8,27,38-trioxa-24,34-diazahexacyclo[23.11.1.1^4,7.0^5,36.0^26,35.0^28,33]octatriaconta-1(36)2,4,9,19,21,25,28,30,32,34-undecaen-13-yl acetate]	112	99	0.07	2	–	–	–	–
CO[C@H]1/C=C/O[C@@]2(C)Oc3c(C)c(O)c4c(=O)c(c5oc6cc(C=O)cc(N7CCN(C)CC7)c6nc-5c4c3C2=O)NC(=O)/C(C)=C\C=C\[C@H](C)[C@H](O)[C@@H](C)[C@@H](O)[C@@H](C)[C@H](OC(C)=O)[C@@H]1C [Compound 30b, (7S,9E,11S,12R,13S,14R,15R,16R,17S,18S,19E,21Z)-30-Formyl-2,15,17-trihydroxy-11-methoxy-3,7,12,14,16,18,22-heptamethyl-32-(4-methylpiperazin-1-yl)-6,23,37-trioxo-8,27,38-trioxa-24,34-diazahexacyclo[23.11.1.1^4,7.0^5,36.0^26,35.0^28,33]octatriaconta-1(36)2,4,9,19,21,25,28,30,32,34-undecaen-13-yl acetate]	–	–	1.37	–	37	> 8	–	–
CO[C@H]1/C=C/O[C@@]2(C)Oc3c(C)c(O)c4c(c3C2=O)C2=NC3(CCN(CC(C)C)CC3)NC2=C(NC(=O)/C(C)=C\C=C\[C@H](C)[C@H](O)[C@@H](C)[C@@H](O)[C@@H](C)[C@H](OC(C)=O)[C@@H]1C)C4=O [RFB, rifabutin, reference compound]	–	–	0.09	2.4 (≈ 2.03 ng/mL)	–	–	117	107
